Test results from patent US8466290B2, “STAT3 inhibitor containing quinolinecarboxamide derivative as active ingredient” (Pharma IP General Incorporated Association, priority 2008, dated 2013).

What was measured:
Type in all cases: cell-based
STAT3 = STAT3 transcription inhibition test (reporter gene method, oncostatin M stimulation); details: Homo sapiens; compound at 100 μM; STAT3 reporter HeLa stable cell line; oncostatin M 10 ng/mL, 4 hours; read-out: STAT3 transcription inhibitory activity (%)
Description: The inhibition of STAT3 transcription was evaluated by using STAT3 reporter HeLa stable cell line (Panomics Inc., catalog No. RC0003), a cell line for the reporter gene method, and performing the following method according to the appendix included therein.
STAT3 reporter HeLa stable cell line subcultured and maintained in a Dulbecco's modified Eagle's medium (DMEM) containing 10% fetal bovine serum, 100 units/mL penicillin, and 100 μg/mL streptomycin was inoculated at a concentration of 40000 cells/well to a 96-well plate (white) and attached to the plate by overnight incubation at 37° C. under 5% CO2. After addition of each evaluation compound adjusted to various concentrations (adjusted with a DMSO solution), the cells were precultured for 1 hour. Then, oncostatin M for activating STAT3 was added at a final concentration 10 ng/mL, and the cells were further cultured at 37° C. under 5% CO2 for 4 hours. Luciferase activity derived from the cells was determined using Steady-Glo Luciferase Assay System (Promega Corp.), and STAT3 transcriptional activity scores were calculated according to the following formula: STAT3 transcriptional activity score (%)=100×(Lchem−L0)/(LDMSO−L0) Lo: luminescence intensity obtained without stimulation with oncostatin M Lchem: luminescence intensity obtained by the addition of a test sample LDMSO: luminescence intensity obtained by the addition of only a solvent for dissolving a test sample

MDA-MB-435S = MDA-MB-435S cell growth inhibitory activity; details: Homo sapiens, compound at 20 μM, 72 hours, read-out: Cell growth inhibitory activity (%)
Description: […] Each well was washed three times with a medium. Then, after addition of 100 μL/well of a medium and 20 μL/well of CellTiter 96 AQueous One Solution Reagent (Promega Corp.), the cells were incubated at 37° C. for 2 hours in the presence of 5% CO2.

[1] = test system: Human lymphoma SCC-3 cells; assay: SCC-3 cell growth inhibition test (MTT method); details: Homo sapiens, 72-hour culture, read-out: Cell growth inhibitory activity (IC50: μM)
Description: Simultaneously with cell inoculation, each test compound diluted to various concentrations with an RPMI medium was added to each well.

Structure (SMILES)	inhibition at 100 µM (STAT3)	inhibition at 20 µM (MDA-MB-435S)	IC50 [1]
COc1ccc(-c2cc(C(=O)Nc3nnc(-c4ccco4)o3)c3ccccc3n2)cc1OC [Ia-57, N-[5-(2-furyl)-1,3,4-oxadiazol-2-yl]-2-(3,4-dimethoxyphenyl)-4-quinolinecarboxamide]	> 100%	64%	–
O=C(Nc1nnc(-c2ccco2)o1)c1cc(-c2cccc(Cl)c2)nc2ccccc12 [Ia-41, 2-(3-chlorophenyl)-N-[5-(2-furyl)-1,3,4-oxadiazol-2-yl]-4-quinolinecarboxamide]	> 100%	55%	–
O=C(Nc1nnc(-c2ccco2)o1)c1cc(-c2ccccc2)nc2ccc(Br)cc12 [Ia-68, 6-bromo-N-[5-(2-furyl)-1,3,4-oxadiazol-2-yl]-2-phenyl-4-quinolinecarboxamide]	> 100%	63%	–
O=C(Nc1nnc(-c2ccco2)o1)c1cc(-c2ccccc2)nc2ccc(-c3ccsc3)cc12 [Ia-99, N-[5-(2-furyl)-1,3,4-oxadiazol-2-yl]-6-(3-thienyl)-2-phenyl-4-quinolinecarboxamide]	73%	93%	–
O=C(Nc1nnc(-c2ccco2)o1)c1cc(-c2ccc3c(c2)OCO3)nc2ccccc12 [Ia-58, N-[5-(2-furyl)-1,3,4-oxadiazol-2-yl]-2-(3,4-methylenedioxyphenyl)-4-quinolinecarboxamide]	> 100%	58%	–
O=C(Nc1nnc(-c2ccncc2)s1)c1cc(-c2ccccc2)nc2ccc(OC(F)(F)F)cc12 [Ib-8, 2-phenyl-N-[5-(4-pyridyl)-1,3,4-thiadiazol-2-yl]-6-trifluoromethoxy-4-quinolinecarboxamide]	65%	80%	–
O=C(Nc1nnc(-c2ccccc2)o1)c1cc(-c2ccccc2)nc2ccc(Cl)cc12 [Ia-110, 6-chloro-2-phenyl-N-(5-phenyl-1,3,4-oxadiazol-2-yl)-4-quinolinecarboxamide]	89%	65%	–
O=C(Nc1nnc(-c2ccco2)o1)c1cc(-c2ccccc2)nc2ccc(-c3ccncc3)cc12 [Ia-76, N-[5-(2-furyl)-1,3,4-oxadiazol-2-yl]-2-phenyl-6-(4-pyridyl)-4-quinolinecarboxamide]	> 100%	84%	–
O=C(Nc1nnc(-c2ccco2)o1)c1cc(-c2ccccc2)nc2ccc(-c3ccccc3)cc12 [Ia-75, N-[5-(2-furyl)-1,3,4-oxadiazol-2-yl]-2,6-diphenyl-4-quinolinecarboxamide]	> 100%	64%	–
O=C(Nc1nnc(-c2ccco2)o1)c1cc(-c2ccc(OC(F)F)cc2)nc2ccccc12 [Ia-49, 2-(4-difluoromethoxyphenyl)-N-[5-(2-furyl)-1,3,4-oxadiazol-2-yl]-4-quinolinecarboxamide]	> 100%	51%	–
O=C(Nc1nnc(-c2ccccc2Cl)o1)c1cc(-c2ccccc2)nc2ccc(OC(F)(F)F)cc12 [Ia-113, N-[5-(2-chlorophenyl)-1,3,4-oxadiazol-2-yl]-2-phenyl-6-trifluoromethoxy-4-quinolinecarboxamide]	> 100%	76%	–
O=C(Nc1nnc(-c2ccco2)o1)c1cc(-c2ccccc2)nc2ccc(-c3ccc(O)cc3)cc12 [Ia-98, N-[5-(2-furyl)-1,3,4-oxadiazol-2-yl]-6-(4-hydroxyphenyl)-2-phenyl-4-quinolinecarboxamide]	> 100%	86%	–
Cc1ccc(-c2cc(C(=O)Nc3nnc(-c4ccco4)o3)c3ccccc3n2)cc1 [Ia-48, N-[5-(2-furyl)-1,3,4-oxadiazol-2-yl]-2-(4-methylphenyl)-4-quinolinecarboxamide]	92%	69%	–
O=C(Nc1nnc(-c2ccco2)o1)c1cc(-c2cccs2)nc2ccc(Cl)cc12 [Ia-30, 6-chloro-N-[5-(2-furyl)-1,3,4-oxadiazol-2-yl]-2-(2-thienyl)-4-quinolinecarboxamide]	62%	> 100%	–
O=C(Nc1nnc(-c2ccco2)o1)c1cc(-c2ccccc2)nc2ccc(F)cc12 [Ia-67, 6-fluoro-N-[5-(2-furyl)-1,3,4-oxadiazol-2-yl]-2-phenyl-4-quinolinecarboxamide]	90%	–	2.1 µM
O=C(Nc1nnc(Br)s1)c1cc(-c2ccccc2)nc2ccccc12 [Ib-2, N-(5-bromo-1,3,4-thiadiazol-2-yl)-2-phenyl-4-quinolinecarboxamide]	> 100%	79%	–

Structure (SMILES)	inhibition at 100 µM (STAT3)	inhibition at 20 µM (MDA-MB-435S)	IC50 [1]
CC(C)Oc1cccc(-c2cc(C(=O)Nc3nnc(-c4ccncc4)s3)c3ccccc3n2)c1 [Ib-b, 2-(3-isopropoxyphenyl)-N-[5-(4-pyridyl)-1,3,4-thiadiazol-2-yl]-4-quinolinecarboxamide]	> 100%	97%	–
Cc1ccc2nc(-c3cccs3)cc(C(=O)Nc3nnc(-c4ccco4)o3)c2c1 [Ia-29, N-[5-(2-furyl)-1,3,4-oxadiazol-2-yl]-6-methyl-2-(2-thienyl)-4-quinolinecarboxamide]	65%	98%	–
COc1ccc(-c2cc(C(=O)Nc3nnc(-c4ccco4)o3)c3ccccc3n2)cc1 [Ia-51, N-[5-(2-furyl)-1,3,4-oxadiazol-2-yl]-2-(4-methoxyphenyl)-4-quinolinecarboxamide]	> 100%	56%	–
COc1ccc(-c2nnc(NC(=O)c3cc(-c4ccccc4)nc4ccc(OC(F)(F)F)cc34)o2)cc1 [Ia-117, N-[5-(4-methoxyphenyl)-1,3,4-oxadiazol-2-yl]-2-phenyl-6-trifluoromethoxy-4-quinolinecarboxamide]	87%	85%	–
O=C(Nc1nnc(-c2ccco2)o1)c1cc(-c2ccccc2O)nc2ccccc12 [Ia-38, N-[5-(2-furyl)-1,3,4-oxadiazol-2-yl]-2-(2-hydroxyphenyl)-4-quinolinecarboxamide]	> 100%	50%	–
O=C(Nc1nnc(-c2ccccc2)o1)c1cc(-c2ccccc2)nc2ccccc12 [Ia-3, 2-phenyl-N-(5-phenyl-1,3,4-oxadiazol-2-yl)-4-quinolinecarboxamide]	> 100%	53%	–
O=C(Nc1nnc(-c2cccs2)o1)c1cc(-c2ccccc2)nc2ccccc12 [Ia-a, 2-phenyl-N-[5-(2-thienyl)-1,3,4-oxadiazol-2-yl]-4-quinolinecarboxamide]	86%	89%	–
Cc1ccc(-c2cc(C(=O)Nc3nnc(-c4ccco4)o3)c3cccc(C)c3n2)cc1 [Ia-27, N-[5-(2-furyl)-1,3,4-oxadiazol-2-yl]-8-methyl-2-(4-tolyl)-4-quinolinecarboxamide]	71%	99%	–
O=C(Nc1nnc(Cc2ccccc2)o1)c1cc(-c2ccccc2)nc2ccccc12 [Ia-83, N-(5-benzyl-1,3,4-oxadiazol-2-yl)-2-phenyl-4-quinolinecarboxamide]	> 100%	90%	–
O=C(Nc1nnc(-c2ccco2)o1)c1cc(-c2ccc(F)cc2)nc2ccccc12 [Ia-46, 2-(4-fluorophenyl)-N-[5-(2-furyl)-1,3,4-oxadiazol-2-yl]-4-quinolinecarboxamide]	80%	54%	–
Cc1ccc(-c2cc(C(=O)Nc3nnc(-c4ccco4)o3)c3ccccc3n2)o1 [Ia-64, N-[5-(2-furyl)-1,3,4-oxadiazol-2-yl]-2-(5-methyl-2-furyl)-4-quinolinecarboxamide]	> 100%	57%	–
N#Cc1cccc(-c2cc(C(=O)Nc3nnc(-c4ccco4)o3)c3ccccc3n2)c1 [Ia-43, 2-(3-cyanophenyl)-N-[5-(2-furyl)-1,3,4-oxadiazol-2-yl]-4-quinolinecarboxamide]	71%	72%	–
COc1cccc(-c2cc(C(=O)Nc3nnc(-c4ccco4)o3)c3ccccc3n2)c1 [Ia-42, N-[5-(2-furyl)-1,3,4-oxadiazol-2-yl]-2-(3-methoxyphenyl)-4-quinolinecarboxamide]	92%	92%	–
O=C(Nc1nnc(-c2ccco2)o1)c1cc(-c2ccccc2)nc2ccc(-c3cccnc3)cc12 [Ia-100, N-[5-(2-furyl)-1,3,4-oxadiazol-2-yl]-6-(3-pyridyl)-2-phenyl-4-quinolinecarboxamide]	92%	76%	–
O=C(Nc1nnc(-c2ccccc2)o1)c1cc(-c2ccccc2)nc2ccc(OC(F)(F)F)cc12 [Ia-111, N-(5-phenyl-1,3,4-oxadiazol-2-yl)-2-phenyl-6-trifluoromethoxy-4-quinolinecarboxamide]	> 100%	87%	–
